Test results reported in ChEMBL document CHEMBL2074072, “Transport of glutathione, glucuronate, and sulfate conjugates by the MRP gene-encoded conjugate export pump” (Cancer Res, 1996).

Molecular target: Multidrug resistance-associated protein 1 (Homo sapiens, UniProt P33527)
Assay: TP_TRANSPORTER: uptake in membrane vesicle from MRP1-expressing HeLa cells
Type: functional, cell membranes

Multidrug resistance-associated protein 1, sequence (P33527 whole entry): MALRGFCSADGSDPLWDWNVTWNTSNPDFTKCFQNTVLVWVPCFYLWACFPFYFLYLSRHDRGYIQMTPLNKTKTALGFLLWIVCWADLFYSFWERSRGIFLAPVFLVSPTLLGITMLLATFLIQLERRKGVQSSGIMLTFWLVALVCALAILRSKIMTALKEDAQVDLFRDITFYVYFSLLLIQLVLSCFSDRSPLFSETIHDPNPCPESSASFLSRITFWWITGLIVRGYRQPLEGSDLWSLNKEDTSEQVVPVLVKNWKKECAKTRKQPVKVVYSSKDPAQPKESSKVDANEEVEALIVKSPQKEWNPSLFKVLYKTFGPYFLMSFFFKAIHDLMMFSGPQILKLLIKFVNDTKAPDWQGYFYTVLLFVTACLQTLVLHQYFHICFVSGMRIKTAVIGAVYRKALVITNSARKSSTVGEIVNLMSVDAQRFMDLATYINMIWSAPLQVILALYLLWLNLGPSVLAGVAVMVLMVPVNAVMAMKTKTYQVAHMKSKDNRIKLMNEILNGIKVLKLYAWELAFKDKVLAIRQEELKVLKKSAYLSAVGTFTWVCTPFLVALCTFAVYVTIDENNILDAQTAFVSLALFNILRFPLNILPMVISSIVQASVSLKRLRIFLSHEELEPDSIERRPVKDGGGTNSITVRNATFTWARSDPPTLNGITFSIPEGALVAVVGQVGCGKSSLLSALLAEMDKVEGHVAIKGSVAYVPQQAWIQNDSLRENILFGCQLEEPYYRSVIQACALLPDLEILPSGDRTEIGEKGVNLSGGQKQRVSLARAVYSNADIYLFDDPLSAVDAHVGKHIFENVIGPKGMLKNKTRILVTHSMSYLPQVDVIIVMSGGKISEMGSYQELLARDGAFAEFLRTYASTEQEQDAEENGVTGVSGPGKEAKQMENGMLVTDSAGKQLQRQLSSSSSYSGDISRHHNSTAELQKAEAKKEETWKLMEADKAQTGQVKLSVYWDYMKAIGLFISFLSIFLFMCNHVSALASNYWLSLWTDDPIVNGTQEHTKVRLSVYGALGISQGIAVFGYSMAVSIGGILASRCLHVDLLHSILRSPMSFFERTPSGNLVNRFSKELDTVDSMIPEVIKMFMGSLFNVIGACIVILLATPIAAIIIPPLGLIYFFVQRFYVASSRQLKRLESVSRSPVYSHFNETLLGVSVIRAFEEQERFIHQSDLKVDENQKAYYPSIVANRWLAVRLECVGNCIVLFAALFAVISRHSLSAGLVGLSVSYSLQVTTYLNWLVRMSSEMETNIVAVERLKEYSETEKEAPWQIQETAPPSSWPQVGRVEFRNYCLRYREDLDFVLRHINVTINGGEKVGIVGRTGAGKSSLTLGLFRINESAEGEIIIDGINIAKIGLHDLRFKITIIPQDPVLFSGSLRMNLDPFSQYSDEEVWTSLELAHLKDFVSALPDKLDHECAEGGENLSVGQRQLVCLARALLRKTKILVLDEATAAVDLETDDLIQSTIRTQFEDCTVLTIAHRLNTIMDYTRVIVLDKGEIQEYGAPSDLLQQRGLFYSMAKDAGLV

Activity | Structure (SMILES)
substrate [+] | CCCCC/C=C\C\C=C/C=C/C=C/[C@@H](SC[C@H](NC(C)=O)C(=O)O)[C@@H](O)CCCC(=O)O
substrate [+] | C[C@H](CCC(=O)O)[C@H]1CC[C@H]2[C@@H]3C[C@H](O[C@@H]4O[C@H](C(=O)O)[C@@H](O)[C@H](O)[C@H]4O)[C@@H]4C[C@H](O)CC[C@]4(C)[C@H]3CC[C@]12C [6alpha-Glucuronosylhyodeoxycholate]
substrate [+] | COc1cc([C@@H]2c3cc4c(cc3[C@@H](O[C@@H]3O[C@@H]5CO[C@@H](C)O[C@H]5[C@H](O)[C@H]3O)[C@H]3COC(=O)[C@H]23)OCO4)cc(OC)c1O[C@@H]1O[C@H](C(=O)O)[C@@H](O)[C@H](O)[C@H]1O [ETOPOSIDE GLUCURONIDE]
substrate [+] | CCCCC/C=C\C\C=C/C=C/C=C/[C@@H](SC[C@H](N)C(=O)O)[C@@H](O)CCCC(=O)O [LEUKOTRIEN E4]
substrate [+] | CCCCC/C=C\C\C=C/C=C/C=C/[C@@H](SC[C@H](N)C(=O)NCC(=O)O)[C@@H](O)CCCC(=O)O [LEUKOTRIENE D4]
